Experimental data published in ChEMBL document CHEMBL2029248, “Fused bicycles as arylketone bioisosteres leading to potent, orally active thiadiazole H3 antagonists” (Bioorg Med Chem Lett, 2012).
Each block holds one molecule with its values, some of them ahead of it. Activity calls are given as the source filed them. The calls are words filed in the database; no cut-off is given here.

Key:
Histamine H3 receptor [1] = target: Histamine H3 receptor (Homo sapiens, UniProt Q9Y5N1); assay: Displacement of [3H]N-alpha-methylhistamine from recombinant human histamine H3 receptor expressed in HEK cell membranes after 30 mins by scintillation counting; parameters: species or system HEK293
[2] = Drug uptake in rat brain at 10 mg/kg, po after 4 hrs; format: ADME, organism-based; parameters: dose 10 mg/kg, route oral; settings: read-out: Drug uptake
Mus musculus [3] = assay: Antidiabetic activity in STZ-induced diabetic ICR mouse DIO model at 30 mg/kg, po qd for 2 days; format: functional, organism-based; parameters: dose 30 mg/kg
Histamine H3 receptor [4] = target: Histamine H3 receptor (Mus musculus, UniProt P58406); assay: Displacement of [3H]N-alpha-methylhistamine from mouse histamine H3 receptor
[5] = AUC (0 to 6 hrs) in rat at 10 mg/kg, po; format: ADME, organism-based; parameters: time < 6 hr, dose 10 mg/kg, route oral; settings: plasma
Mus musculus [6] = assay: Ex-vivo receptor occupancy in ICR mouse cortex assessed as displacement of [3H]N-alpha-methylhistamine from histamine H3 receptor at 10 mg/kg, po after 4 hrs post dose by scintillation counting; format: functional
Mus musculus [7] = assay: Antiobesity activity in STZ-induced diabetic ICR mouse DIO model at 30 mg/kg, po qd for 2 days; format: functional, organism-based; parameters: dose 30 mg/kg
Mus musculus [8] = assay: Antiobesity activity in STZ-induced diabetic ICR mouse DIO model assessed as reduction in food intake at 30 mg/kg, po qd for 2 days relative to vehicle-treated control; format: functional; settings: 48 h
Mus musculus [9] = assay: Antidiabetic activity in STZ-induced diabetic ICR mouse DIO model assessed as glucose level at 30 mg/kg, po qd for 2 days; format: functional
Mus musculus [10] = assay: Antiobesity activity in STZ-induced diabetic ICR mouse DIO model assessed as change in body weight at 30 mg/kg, po qd for 2 days relative to vehicle-treated control; format: functional
Cytochrome P450 3A4 [11] = target: T1, Cytochrome P450 3A4 (Homo sapiens, UniProt P08684); assay: Inhibition of CYP3A4 preincubated with compound; format: ADME
Cytochrome P450 2D6 [12] = target: T2, Cytochrome P450 2D6 (Homo sapiens, UniProt P10635); assay: Inhibition of CYP2D6 preincubated with compound; format: ADME
Cytochrome P450 2C9 [13] = target: T3, Cytochrome P450 2C9 (Homo sapiens, UniProt P11712); assay: Inhibition of CYP2C9 preincubated with compound; format: ADME; settings: read-out: INH
hERG = hERG (Homo sapiens, UniProt Q12809); assay: Inhibition of human ERG at 10 uM
Cytochrome P450 3A4 [14] = target: T1, Cytochrome P450 3A4; assay: Inhibition of CYP3A4 co-incubated with compound; format: ADME
Cytochrome P450 2D6 [15] = target: T2, Cytochrome P450 2D6; assay: Inhibition of CYP2D6 co-incubated with compound; format: ADME
Cytochrome P450 2C9 [16] = target: T3, Cytochrome P450 2C9; assay: Inhibition of CYP2C9 co-incubated with compound; format: ADME
Mus musculus [17] = assay: Ex-vivo receptor occupancy in ICR mouse cortex assessed as displacement of [3H]N-alpha-methylhistamine from histamine H3 receptor at 30 mg/kg, po after 4 hrs post dose by scintillation counting; format: functional

T3 sequence (P11712 whole entry): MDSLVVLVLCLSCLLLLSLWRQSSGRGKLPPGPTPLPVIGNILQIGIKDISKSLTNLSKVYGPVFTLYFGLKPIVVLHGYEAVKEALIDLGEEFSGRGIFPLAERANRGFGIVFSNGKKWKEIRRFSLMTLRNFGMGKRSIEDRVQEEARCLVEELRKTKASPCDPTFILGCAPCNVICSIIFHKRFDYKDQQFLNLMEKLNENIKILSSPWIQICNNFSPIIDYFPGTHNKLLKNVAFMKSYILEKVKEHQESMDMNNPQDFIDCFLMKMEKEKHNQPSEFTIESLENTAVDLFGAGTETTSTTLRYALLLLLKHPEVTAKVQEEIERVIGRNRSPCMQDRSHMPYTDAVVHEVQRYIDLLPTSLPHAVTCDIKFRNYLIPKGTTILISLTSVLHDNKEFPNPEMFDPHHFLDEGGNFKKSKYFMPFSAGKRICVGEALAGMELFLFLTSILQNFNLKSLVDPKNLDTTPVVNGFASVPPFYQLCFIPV
Sequence of Histamine H3 receptor (Homo sapiens, UniProt Q9Y5N1) (Q9Y5N1 whole entry): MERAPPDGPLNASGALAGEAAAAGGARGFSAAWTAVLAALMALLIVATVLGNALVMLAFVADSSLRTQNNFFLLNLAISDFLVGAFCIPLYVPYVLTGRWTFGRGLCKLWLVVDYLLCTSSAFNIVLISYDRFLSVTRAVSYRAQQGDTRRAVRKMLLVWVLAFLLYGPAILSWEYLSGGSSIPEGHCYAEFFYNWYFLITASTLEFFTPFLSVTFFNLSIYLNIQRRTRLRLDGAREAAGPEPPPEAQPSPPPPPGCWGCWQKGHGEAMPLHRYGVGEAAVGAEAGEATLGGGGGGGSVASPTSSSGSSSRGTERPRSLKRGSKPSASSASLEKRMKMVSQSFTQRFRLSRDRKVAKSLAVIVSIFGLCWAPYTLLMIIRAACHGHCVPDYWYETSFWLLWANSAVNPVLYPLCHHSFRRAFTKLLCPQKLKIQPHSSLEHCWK
Sequence of Histamine H3 receptor (Mus musculus, UniProt P58406) (P58406 whole entry): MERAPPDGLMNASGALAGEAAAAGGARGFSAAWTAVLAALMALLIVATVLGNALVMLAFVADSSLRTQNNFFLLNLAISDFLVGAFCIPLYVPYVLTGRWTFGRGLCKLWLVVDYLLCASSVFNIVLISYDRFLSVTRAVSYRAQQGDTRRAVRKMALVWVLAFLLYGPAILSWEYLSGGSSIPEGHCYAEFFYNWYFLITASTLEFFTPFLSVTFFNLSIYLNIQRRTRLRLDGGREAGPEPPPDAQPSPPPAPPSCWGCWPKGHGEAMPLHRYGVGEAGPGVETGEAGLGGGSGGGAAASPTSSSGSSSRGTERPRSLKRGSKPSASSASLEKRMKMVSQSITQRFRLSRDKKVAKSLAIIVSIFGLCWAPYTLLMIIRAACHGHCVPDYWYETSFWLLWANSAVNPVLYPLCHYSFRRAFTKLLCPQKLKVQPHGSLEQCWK
T1 sequence (P08684 whole entry): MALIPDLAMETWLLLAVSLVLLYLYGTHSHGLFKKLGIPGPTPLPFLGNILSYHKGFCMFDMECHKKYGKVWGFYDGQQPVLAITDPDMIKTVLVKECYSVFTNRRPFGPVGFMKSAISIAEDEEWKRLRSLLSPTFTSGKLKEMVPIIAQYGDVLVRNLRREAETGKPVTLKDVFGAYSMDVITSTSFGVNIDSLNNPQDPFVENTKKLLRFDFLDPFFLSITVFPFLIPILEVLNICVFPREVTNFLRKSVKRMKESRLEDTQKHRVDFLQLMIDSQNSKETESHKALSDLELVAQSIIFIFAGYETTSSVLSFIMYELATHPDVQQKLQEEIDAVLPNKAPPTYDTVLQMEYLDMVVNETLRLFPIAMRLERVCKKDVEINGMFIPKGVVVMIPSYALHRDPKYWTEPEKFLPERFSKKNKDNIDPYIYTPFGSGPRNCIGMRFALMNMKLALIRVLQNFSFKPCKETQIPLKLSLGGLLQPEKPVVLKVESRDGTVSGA
T2 sequence (P10635 whole entry): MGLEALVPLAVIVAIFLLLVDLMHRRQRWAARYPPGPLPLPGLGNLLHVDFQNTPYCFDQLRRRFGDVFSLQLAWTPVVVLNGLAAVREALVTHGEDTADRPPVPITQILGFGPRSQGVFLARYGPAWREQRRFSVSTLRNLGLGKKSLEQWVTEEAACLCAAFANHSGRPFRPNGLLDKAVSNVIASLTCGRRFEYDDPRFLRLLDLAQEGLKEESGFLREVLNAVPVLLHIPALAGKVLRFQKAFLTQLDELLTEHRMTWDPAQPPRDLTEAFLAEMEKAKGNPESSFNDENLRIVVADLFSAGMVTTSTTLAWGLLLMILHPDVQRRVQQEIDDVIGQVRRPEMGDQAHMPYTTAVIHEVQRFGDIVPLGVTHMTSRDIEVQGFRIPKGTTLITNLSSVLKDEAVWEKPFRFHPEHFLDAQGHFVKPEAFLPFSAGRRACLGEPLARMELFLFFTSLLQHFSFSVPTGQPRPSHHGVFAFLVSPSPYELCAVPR
Sequence of hERG (Q12809 whole entry): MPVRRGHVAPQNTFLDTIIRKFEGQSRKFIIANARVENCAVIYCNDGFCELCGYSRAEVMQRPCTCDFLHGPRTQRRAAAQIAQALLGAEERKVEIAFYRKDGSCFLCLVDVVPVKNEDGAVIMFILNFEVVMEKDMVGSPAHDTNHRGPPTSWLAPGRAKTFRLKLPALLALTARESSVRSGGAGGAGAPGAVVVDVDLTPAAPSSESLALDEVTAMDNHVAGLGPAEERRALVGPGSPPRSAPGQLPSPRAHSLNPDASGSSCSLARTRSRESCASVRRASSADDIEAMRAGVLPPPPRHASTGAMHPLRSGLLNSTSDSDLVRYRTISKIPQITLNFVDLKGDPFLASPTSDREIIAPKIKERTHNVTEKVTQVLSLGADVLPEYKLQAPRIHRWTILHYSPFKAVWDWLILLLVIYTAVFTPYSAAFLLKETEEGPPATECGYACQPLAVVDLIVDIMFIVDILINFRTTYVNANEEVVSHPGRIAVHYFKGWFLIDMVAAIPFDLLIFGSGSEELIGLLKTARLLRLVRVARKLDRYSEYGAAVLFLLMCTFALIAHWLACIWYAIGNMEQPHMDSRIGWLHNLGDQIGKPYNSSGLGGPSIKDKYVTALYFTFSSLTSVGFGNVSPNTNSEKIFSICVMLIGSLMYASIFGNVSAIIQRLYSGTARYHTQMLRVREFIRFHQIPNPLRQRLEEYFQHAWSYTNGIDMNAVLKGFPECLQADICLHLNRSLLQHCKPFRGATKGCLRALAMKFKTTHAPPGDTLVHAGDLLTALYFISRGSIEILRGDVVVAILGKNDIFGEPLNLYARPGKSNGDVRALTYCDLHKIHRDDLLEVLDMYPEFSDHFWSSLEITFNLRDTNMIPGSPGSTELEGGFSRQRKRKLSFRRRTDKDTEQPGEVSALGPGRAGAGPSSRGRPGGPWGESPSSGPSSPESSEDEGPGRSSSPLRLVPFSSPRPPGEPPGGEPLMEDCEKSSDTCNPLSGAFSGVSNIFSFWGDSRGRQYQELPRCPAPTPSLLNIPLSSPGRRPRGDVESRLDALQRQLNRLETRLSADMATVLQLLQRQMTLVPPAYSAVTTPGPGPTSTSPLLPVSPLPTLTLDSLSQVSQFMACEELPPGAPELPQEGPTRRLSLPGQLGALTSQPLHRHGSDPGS

Structure (SMILES): O=C(c1cccc(-c2nnc(N3CCC(N4CCCCC4)CC3)s2)c1)N1CCC1
Ki (Histamine H3 receptor [1]): 78.9 nM

Structure (SMILES): Cc1nnc(-c2cccc(-c3nnc(N4CCC(N5CCCCC5)CC4)s3)c2)o1
concentration at 4 h [2]: 1290 ng/g | Activity (Mus musculus [3]): inactive | Ki (Histamine H3 receptor [4]): 40 nM | AUC(0-t) at 6 h [5]: 2500 ng·h/mL | Occ (Mus musculus [6]): 46% | Ki (Histamine H3 receptor [1]): 22.8 nM | Activity (Mus musculus [7]): inactive

Structure (SMILES): CC(O)c1cccc(-c2nnc(N3CCC(N4CCCCC4)CC3)s2)c1 (centres undefined)
Ki (Histamine H3 receptor [1]): 29 nM

Structure (SMILES): CN(C)C(=O)c1cccc(-c2nnc(N3CCC(N4CCCCC4)CC3)s2)c1
Ki (Histamine H3 receptor [1]): 192 nM

Structure (SMILES): O=c1ccc2ccc(-c3nnc(N4CCC(N5CCCCC5)CC4)s3)cc2[nH]1
Occ (Mus musculus [6]): 2% | Ki (Histamine H3 receptor [1]): 35.9 nM

Structure (SMILES): O=C1Cc2cc(-c3nnc(N4CCC(N5CCCCC5)CC4)s3)ccc2N1
Ki (Histamine H3 receptor [1]): 64.4 nM

Structure (SMILES): CC(=O)c1cccc(-c2nnc(N3CCC(N4CCCCC4)CC3)s2)c1
Occ (Mus musculus [17]): 62% | inhibition in vivo at 30 mg/kg (Mus musculus [8]): 5.61% | Activity (Mus musculus [9]): 7.08 mg/mL | Activity (Mus musculus [10]): -1.01% | INH (Cytochrome P450 3A4 [11]): > 20 µM | INH (Cytochrome P450 2D6 [12]): > 20 µM | IC50 (Cytochrome P450 2C9 [13]): > 20000 nM | inhibition at 10 µM (hERG): 40% | INH (Cytochrome P450 3A4 [14]): > 20 µM | INH (Cytochrome P450 2D6 [15]): > 20 µM | INH (Cytochrome P450 2C9 [16]): > 20 µM

Structure (SMILES): Cc1cc(=O)c2cc(-c3nnc(N4CCC(N5CCCCC5)CC4)s3)ccc2o1
AUC(0-t) at 6 h [5]: 8000 ng·h/mL | Ki (Histamine H3 receptor [1]): 82.8 nM

Structure (SMILES): Cc1nc2cc(-c3nnc(N4CCC(N5CCCCC5)CC4)s3)ccc2o1
Ki (Histamine H3 receptor [1]): 24.5 nM

Structure (SMILES): O=C1COc2ccc(-c3nnc(N4CCC(N5CCCCC5)CC4)s3)cc2N1
Ki (Histamine H3 receptor [1]): 22.1 nM

More lines, in order of falling Ki (Histamine H3 receptor [1]), values ahead:

Ki (Histamine H3 receptor [1]): 20 nM
Structure (SMILES): O=c1ccc2c(-c3nnc(N4CCC(N5CCCCC5)CC4)s3)cccc2[nH]1
Occ (Mus musculus [6]): 6%

Ki (Histamine H3 receptor [1]): 17.8 nM
Structure (SMILES): c1cc(-c2nnc(N3CCC(N4CCCCC4)CC3)s2)c2ccncc2c1
Occ (Mus musculus [6]): 19%

Ki (Histamine H3 receptor [1]): 16.5 nM
Structure (SMILES): CC(=O)Nc1cccc(-c2nnc(N3CCC(N4CCCCC4)CC3)s2)c1

concentration at 4 h [2]: 1340 ng/g | Ki (Histamine H3 receptor [4]): 25 nM | AUC(0-t) at 6 h [5]: 7300 ng·h/mL | Ki (Histamine H3 receptor [1]): 13 nM | INH (Cytochrome P450 3A4 [11]): > 20 µM | INH (Cytochrome P450 2D6 [12]): > 20 µM | IC50 (Cytochrome P450 2C9 [13]): > 20000 nM | INH (Cytochrome P450 3A4 [14]): > 20 µM | INH (Cytochrome P450 2D6 [15]): > 20 µM | INH (Cytochrome P450 2C9 [16]): > 20 µM
Structure (SMILES): O=c1ccnc2ccc(-c3nnc(N4CCC(N5CCCCC5)CC4)s3)cn12
Occ (Mus musculus [6]): 69% | inhibition in vivo at 30 mg/kg (Mus musculus [8]): 33.6% | glucose change (Mus musculus [9]): -87 mg/dL | Activity (Mus musculus [10]): -3.02% | inhibition at 10 µM (hERG): 7%

concentration at 4 h [2]: 268 ng/g | Ki (Histamine H3 receptor [4]): 12 nM | AUC(0-t) at 6 h [5]: 1300 ng·h/mL | Ki (Histamine H3 receptor [1]): 12.7 nM
Structure (SMILES): O=c1ccoc2ccc(-c3nnc(N4CCC(N5CCCCC5)CC4)s3)cc12
Activity (Mus musculus [3]): inactive | Occ (Mus musculus [6]): 84% | Activity (Mus musculus [7]): inactive

Ki (Histamine H3 receptor [1]): 12 nM
Structure (SMILES): O=c1cccnn1-c1cccc(-c2nnc(N3CCC(N4CCCCC4)CC3)s2)c1
Occ (Mus musculus [6]): 25%

Ki (Histamine H3 receptor [1]): 10 nM
Structure (SMILES): O=c1ccc2cc(-c3nnc(N4CCC(N5CCCCC5)CC4)s3)ccc2[nH]1
Occ (Mus musculus [6]): 25%

concentration at 4 h [2]: 110 ng/g | Ki (Histamine H3 receptor [4]): 7.2 nM | AUC(0-t) at 6 h [5]: 530 ng·h/mL | Ki (Histamine H3 receptor [1]): 4.6 nM
Structure (SMILES): c1cnc2c(-c3nnc(N4CCC(N5CCCCC5)CC4)s3)cccc2c1
Activity (Mus musculus [3]): inactive | Occ (Mus musculus [6]): 77% | Activity (Mus musculus [7]): inactive

Ki (Histamine H3 receptor [1]): 4.4 nM
Structure (SMILES): O=C(c1cccc(-c2nnc(N3CCC(N4CCCCC4)CC3)s2)n1)N1CCC1
Occ (Mus musculus [6]): 6%

concentration at 4 h [2]: 25 ng/g | Ki (Histamine H3 receptor [4]): 2.4 nM | AUC(0-t) at 6 h [5]: 1200 ng·h/mL | Ki (Histamine H3 receptor [1]): 3.4 nM
Structure (SMILES): Cc1nnc2ccc(-c3nnc(N4CCC(N5CCCCC5)CC4)s3)cn12
Activity (Mus musculus [3]): inactive | Occ (Mus musculus [6]): 34% | Activity (Mus musculus [7]): inactive

Ki (Histamine H3 receptor [1]): 3.2 nM
Structure (SMILES): c1cc(-c2nnc(N3CCC(N4CCCCC4)CC3)s2)n2nccc2c1
Occ (Mus musculus [6]): 22%

concentration at 4 h [2]: 2670 ng/g | Ki (Histamine H3 receptor [4]): 2.6 nM | AUC(0-t) at 6 h [5]: 840 ng·h/mL | Ki (Histamine H3 receptor [1]): 2.1 nM
Structure (SMILES): O=c1ccnc2c(-c3nnc(N4CCC(N5CCCCC5)CC4)s3)cccn12
Activity (Mus musculus [3]): inactive | Occ (Mus musculus [6]): 94% | Activity (Mus musculus [7]): inactive
